# Assay results reported in publication PMC4698308, “A new amino acid substitution (Ala-205-Phe) in acetolactate synthase (ALS) confers broad spectrum resistance to ALS-inhibiting herbicides” (Planta, 2015).
# How the values were obtained:
# [1] = tested on: recombinant Arabidopsis thaliana ALS variant A205F; assay type: biochemical; conditions: IC50 mutant divided by IC50 sensitive ALS; max inhibitor concentration 1.00 × 10^−04 M
# In short: (§1)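 His-tagged enzymes lacking the 85-residue N-terminal transit peptide, expressed and purified. Herbicides in DMSO added; reaction 60 min at 30 °C, stopped with H2SO4, acetolactate converted to acetoin at 56 °C for 15 min.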
# [2] = tested on: recombinant Arabidopsis thaliana ALS variant A205V; assay type: biochemical; conditions: IC50 mutant divided by IC50 sensitive ALS; max inhibitor concentration 1.00 × 10^−04 M
# In short: as §1
# [3] = tested on: recombinant Arabidopsis thaliana ALS variant W574L; assay type: biochemical; conditions: IC50 mutant divided by IC50 sensitive ALS; max inhibitor concentration 1.00 × 10^−04 M
# In short: as §1
# [4] = tested on: ALS in POAAN-R3 and susceptible annual bluegrass plants; parameters: method as in Brosnan et al. [2015]; conditions: increasing concentrations from 0 to 100 μM; ref Brosnan et al. [2015]; cited from earlier work
# [5] = tested on: annual bluegrass (Poa annua L.); experiment: Whole plant non-target site resistance experiment with P450 inhibitors malathion or PBO (control 21 days after treatment); assay type: in vivo; conditions: for Annual bluegrass control S: susceptible (S)
# Description: Additional experiments were conducted during March–April 2015 to determine if non-target site based mechanisms conferred resistance to ALS inhibitors in our annual bluegrass population, POAAN-R3. Plants (RP6, RP7, and S) were cultured in plastic conical containers as previously described and allowed to acclimate to the glasshouse for 18 days prior to initiating two experiments.
# In the first experiment, resistant (RP6, RP7) and susceptible (S) plants were treated with foramsulfuron at 29 g ha^−1, trifloxysulfuron (Monument. Syngenta Professional Products. Greensboro, NC, USA) at 27.8 g ha^−1, imazaquin (Image. BASF Corporation. Research Triangle Park, NC) at 27.5 g ha^−1, or bispyribac-sodium (Velocity. Valent USA Corporation. Walnut Creek, CA, USA) at 70 g ha^−1. All herbicides were applied alone or in combination with either malathion (Spectrum Group. St. Louis, MO, USA) at 1000 g ha^−1 or piperonyl butoxide (Sigma Aldrich. St. Louis, MO, USA) at 2100 g ha^−1. Malathion and piperonyl butoxide (PBO) inhibit cytochrome P450 monooxygenases involved in metabolism of ALS inhibiting herbicides and are commonly used at the application rates tested herein to evaluate non-target site based resistance mechanisms in weeds (Burnet et al. [1994]; Christopher et al. [1992]; Yu and Powles [2014b]; Rao et al. [1995]). All herbicides were mixed in water carrier and included non-ionic surfactant at 0.25 % v/v. Malathion and PBO were mixed with methanol and de-ionized water (50:50) and applied 60 min prior to herbicide application using a previously described enclosed spray chamber on 13 February 2015.
# Annual bluegrass control was visually assessed on a 0 (i.e., no control) to 100 % (i.e., complete kill) scale relative to the non-treated 21 days after treatment. After all control data had been collected, aboveground biomass was harvested from each plastic conical container at the soil line using scissors, dried at 100 °C, and weighed. Treatments were arranged as a 3 × 5 × 3 factorial with three plant selections (RP6, RP7, S), five herbicides (foramsulfuron, trifloxysulfuron, imazaquin, bispyribac-sodium, non-treated) and three P450 inhibitor treatments (malathion, PBO, non-treated) in a completely randomized design with four replications and repeated in separate glasshouses during February 2015.
smiles,measurement,setting,value
COc1cc(OC)nc(NC(=O)NS(=O)(=O)c2cc(NC=O)ccc2C(=O)N(C)C)n1 [Foramsulfuron],Resistance factor A205F,[1],5160
same,Resistance factor A205V,[2],12
same,Resistance factor W574L,[3],2013
same,differences in the in vitro activity of ALS in POAAN-R3 and susceptible plants,[4],no differences
same,Annual bluegrass control RP6,"[5]; RP6, herbicide alone, foramsulfuron 29, trifloxysulfuron 27.8, imazaquin 27.5, bispyribac-sodium 70 g ha^−1",58%
same,Annual bluegrass control RP6,"[5]; RP6, herbicide with PBO 2100 g ha^−1 applied 60 min prior",31%
same,Annual bluegrass control RP6,"[5]; RP6, herbicide with malathion 1000 g ha^−1 applied 60 min prior",24%
same,Annual bluegrass control RP7,"[5]; RP7, herbicide alone, foramsulfuron 29, trifloxysulfuron 27.8, imazaquin 27.5, bispyribac-sodium 70 g ha^−1",28%
same,Annual bluegrass control RP7,"[5]; RP7, herbicide with PBO 2100 g ha^−1 applied 60 min prior",24%
same,Annual bluegrass control RP7,"[5]; RP7, herbicide with malathion 1000 g ha^−1 applied 60 min prior",22%
same,Annual bluegrass control S,"[5]; herbicide alone, foramsulfuron 29, trifloxysulfuron 27.8, imazaquin 27.5, bispyribac-sodium 70 g ha^−1",91%
same,Annual bluegrass control S,[5]; herbicide with PBO 2100 g ha^−1 applied 60 min prior,95%
same,Annual bluegrass control S,[5]; herbicide with malathion 1000 g ha^−1 applied 60 min prior,96%
